According to patent US20230158025A1 (UNIVERSITY OF UTAH RESEARCH FOUNDATION, priority 2020, published 2023):
Read-outs that look alike come from different tables or passages of the source.

Legend:
recombinant mouse GALK1 = recombinant mouse GALK1 (Mus musculus, UniProt Q9R0N0); assay: mGALK1 biochemical activity assay (Kinase-Glo Plus, ATP depletion)
Protocol: In vitro hGALK1 activity assays were performed as previously described. Liu et al., Bioorg. […] The biochemical assay was performed by coupling the activity of recombinant human or mouse GALK1 to the Kinase-Glo Plus luminescent ATP detection kit, using ATP depletion as a measure of GALK1 turnover. […] One μL/well of GALK-galactose solution (5 nM GALK1, 100 μM galactose) in assay buffer was then added, yielding a final reaction volume of 4 μL/well. Following a 1-hour room temperature incubation, 4 μL of Kinase-Glo Plus detection reagent was added to provide an ATP-dependent luminescent readout (final assay volume: 8 μL/well).

recombinant human GALK1 = recombinant human GALK1 (Homo sapiens, UniProt P51570); assay: hGALK1 biochemical activity assay (Kinase-Glo Plus, ATP depletion)
Protocol: In vitro hGALK1 activity assays were performed as previously described. Liu et al., Bioorg. Med. Chem. Lett. 25(3): 721-727 (2015), which is incorporated by reference herein for the specific teachings thereof. The biochemical assay was performed by coupling the activity of recombinant human or mouse GALK1 to the Kinase-Glo Plus luminescent ATP detection kit, using ATP depletion as a measure of GALK1 turnover. Specifically, three μL/well of ATP substrate solution (35 μM ATP) in assay buffer (20 mM HEPES pH 8.0, 5 mM MgCl2, 60 mM NaCl, 1 mM DTT, 0.01% BSA final concentration) was dispensed into 1536-well assay plates (Greiner, white solid-bottom medium-binding plates). Aliquots of compound (23 nL solubilized in DMSO) were transferred to the assay plates using a Kalypsys 1536-well pintool such that 11 concentrations with 1/3 dilutions ranging from 57.4 μM-0.97 nM are tested. One μL/well of GALK-galactose solution (5 nM GALK1, 100 μM galactose) in assay buffer was then added, yielding a final reaction volume of 4 μL/well. Following a 1-hour room temperature incubation, 4 μL of Kinase-Glo Plus detection reagent was added to provide an ATP-dependent luminescent readout (final assay volume: 8 μL/well).

[1] = rat microsomal stability (RLM)
[2] = aqueous kinetic solubility
[3] = recombinant mouse GALK1, Kinase-Glo Plus ATP depletion, read-out: mGALK
[4] = recombinant human GALK1, Kinase-Glo Plus ATP depletion
[5] = Tables 2-15, 35 μM ATP, 100 μM galactose, 1 h, bracketed figure after some values is undefined and not reported, read-out: mGALK IC50
[6] = Tables 2-15, 35 μM ATP, 100 μM galactose, 1 h, bracketed figure after some values (e.g. −1.2) is undefined and not reported, read-out: hGALK IC50
[7] = recombinant human GALK1, Kinase-Glo Plus ATP depletion, read-out: hGALK
[8] = recombinant mouse GALK1, Kinase-Glo Plus ATP depletion, bracketed figure in the cell, e.g. (−1.2), is not defined in the text shown, read-out: mGALK
[9] = microsomal stability half-life, minutes
[10] = Tables 2-15, 35 μM ATP, 100 μM galactose, 1 h, bracketed figure after some values is undefined and not reported
[11] = recombinant mouse GALK1, Kinase-Glo Plus ATP depletion
[12] = recombinant human GALK1, Kinase-Glo Plus ATP depletion, bracketed figure in the cell, e.g. (−1.2), is not defined in the text shown, read-out: hGALK

recombinant human GALK1, sequence (P51570 whole entry): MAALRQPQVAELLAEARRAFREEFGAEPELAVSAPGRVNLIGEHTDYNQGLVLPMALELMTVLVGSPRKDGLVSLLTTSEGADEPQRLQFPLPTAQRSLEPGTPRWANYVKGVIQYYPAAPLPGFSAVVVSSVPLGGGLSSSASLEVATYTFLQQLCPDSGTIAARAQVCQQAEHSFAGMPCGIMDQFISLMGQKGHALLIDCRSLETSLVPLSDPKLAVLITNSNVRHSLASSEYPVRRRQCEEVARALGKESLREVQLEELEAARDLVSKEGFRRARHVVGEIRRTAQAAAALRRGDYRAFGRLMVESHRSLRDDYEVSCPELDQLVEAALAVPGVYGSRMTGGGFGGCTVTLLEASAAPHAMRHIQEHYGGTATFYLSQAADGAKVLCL
recombinant mouse GALK1, sequence (Q9R0N0 whole entry): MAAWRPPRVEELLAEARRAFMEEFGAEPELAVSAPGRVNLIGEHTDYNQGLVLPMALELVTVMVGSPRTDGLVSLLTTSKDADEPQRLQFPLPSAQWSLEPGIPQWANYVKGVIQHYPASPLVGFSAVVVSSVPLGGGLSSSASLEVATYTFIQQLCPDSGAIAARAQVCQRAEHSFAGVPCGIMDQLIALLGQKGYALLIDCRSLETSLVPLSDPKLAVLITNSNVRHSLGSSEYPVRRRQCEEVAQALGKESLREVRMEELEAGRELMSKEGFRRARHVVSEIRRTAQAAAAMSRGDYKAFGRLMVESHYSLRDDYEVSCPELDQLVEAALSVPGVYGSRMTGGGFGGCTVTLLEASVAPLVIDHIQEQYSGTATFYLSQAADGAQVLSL

| IC50 (recombinant mouse GALK1; [3]) [µM] | Metab. Stabil. (m) ([1]; microsomal stability half-life) | Sol. ([2]; aqueous kinetic solubility) [µg/mL] | IC50 (recombinant human GALK1; [6]) [µM] | IC50 (recombinant human GALK1; [7]) [µM] | SMILES | also measured |
| --- | --- | --- | --- | --- | --- | --- |
| 13.7 | 19.30 | <1 |  |  | CCOC(=O)C1=C(C)NC(Nc2nc3ccccc3o2)=NC1c1ccccc1Cl (centres unmarked) [Compound 239, ethyl 2-(benzo[d]oxazol-2-ylamino)-4-(2-chlorophenyl)-6-methyl-1,4-dihydropyrimidine-5-carboxylate] | hGALK (μM) (recombinant human GALK1; [4]): in- active |
| 17.2 | >30 | <1 | 7.69 | 7.69 | CC1=C(C(=O)Nc2cccc(C(N)=O)c2)C(c2ccccc2Cl)N=C(Nc2nc3ccccc3o2)N1 (centres unmarked) [Compound 177, 2-(benzo[d]oxazol-2-ylamino)-N-(3-carbamoylphenyl)-4-(2-chlorophenyl)-6-methyl-1,4-dihydropyrimidine-5-carboxamide] | IC50 (recombinant mouse GALK1; [5]): 17.2 µM |
| 21.7 | >30 | <1 | 19.3 | 19.3 | CC1=C(C(=O)Nc2ccc(C(=O)N3CCOCC3)cc2)C(c2ccccc2Cl)N=C(Nc2nc3ccccc3o2)N1 (centres unmarked) [Compound 182, 2-(benzo[d]oxazol-2-ylamino)-4-(2-chlorophenyl)-6-methyl-N-(4-(morpholine-4-carbonyl)phenyl)-1,4-dihydropyrimidine-5-carboxamide] | IC50 (recombinant mouse GALK1; [5]): 21.7 µM |
|  | 11.34 | <1 | 7.69 | 7.69 | CC1=C(C(=O)NCc2ccc(F)cc2)C(c2ccccc2Cl)N=C(Nc2nc3ccccc3o2)N1 (centres unmarked) [Compound 217] | mGALK IC50 (recombinant mouse GALK1; [10]): inactive; mGALK (μM) (recombinant mouse GALK1; [11]): in- active |
|  | 4.223 | <1 |  |  | CC1=C(C(=O)NCc2ccccc2Cl)C(c2ccccc2Cl)N=C(Nc2nc3ccccc3o2)N1 (centres unmarked) [Compound 216, 2-(benzo[d]oxazol-2-ylamino)-N-(2-chlorobenzyl)-4-(2-chlorophenyl)-6-methyl-1,4-dihydropyrimidine-5-carboxamide] | mGALK IC50 (recombinant mouse GALK1; [10]): inactive; mGALK (μM) (recombinant mouse GALK1; [11]): in- active; hGALK IC50 (recombinant human GALK1; Tables 2-15, 35 μM ATP, 100 μM galactose, 1 h, bracketed figure after some values (e.g. −1.2) is undefined and not reported): inactive; hGALK (μM) (recombinant human GALK1; [4]): in- active |
|  | >30 | 60.3 | 4.32 | 4.32 | CC1=C(C(=O)Nc2cncc(C(=O)O)c2)C(c2ccccc2Cl)N=C(Nc2nc3ccccc3o2)N1 (centres unmarked) [Compound 202, 5-(2-(benzo[d]oxazol-2-ylamino)-4-(2-chlorophenyl)-6-methyl-1,4-dihydropyrimidine-5-carboxamido)nicotinic acid] |  |
|  |  | >76 |  |  | CC1=C(C(=O)Nc2cc(C(=O)O)ccn2)C(c2ccccc2Cl)N=C(Nc2nc3ccccc3o2)N1C (centres unmarked) [Compound 273, 2-(2-(benzo[d]oxazol-2-ylamino)-4-(2-chlorophenyl)-1,6-dimethyl-1,4-dihydropyrimidine-5-carboxamido)isonicotinic acid] | IC50 (recombinant mouse GALK1; [8]): 34.3 µM; IC50 (recombinant human GALK1; [12]): 21.7 µM; Metab. Stabil. (m) [1, 9]: >30 m |

The remaining lines, values behind:

| SMILES | IC50 (recombinant mouse GALK1; [3]) [µM] | Metab. Stabil. (m) ([1]; microsomal stability half-life) | Sol. ([2]; aqueous kinetic solubility) [µg/mL] | IC50 (recombinant human GALK1; [6]) [µM] | IC50 (recombinant human GALK1; [7]) [µM] | also measured |
| --- | --- | --- | --- | --- | --- | --- |
| CC1=C(C(=O)Nc2cc(C(=O)O)ccn2)C(c2ccccc2Cl)N=C(Nc2nc3ccccc3o2)N1CC(=O)O (centres unmarked) [Compound 272] |  |  | >83 |  |  | IC50 (recombinant mouse GALK1; [8]): 13.7 µM; IC50 (recombinant human GALK1; read-out: hGALK): 3.43 µM; Metab. Stabil. (m) [1, 9]: >30 m |
| CC1=C(C(=O)Nc2cccc(F)c2)C(c2ccccc2Cl)N=C(Nc2nc3ccccc3o2)N1 (centres unmarked) [Compound 158, 2-(benzo[d]oxazol-2-ylamino)-N-(3-fluorophenyl)-4-(2-chlorophenyl)-6-methyl-1,4-dihydropyrimidine-5-carboxamide] | 12.2 | >30 | <1 |  | 6.85 | IC50 (recombinant mouse GALK1; [5]): 12.2 µM |
| CC1=C(C(=O)Nc2ccccc2F)C(c2ccccc2Cl)N=C(Nc2nc3ccccc3o2)N1 (centres unmarked) [Compound 157, 2-(benzo[d]oxazol-2-ylamino)-N-(2-fluorophenyl)-4-(2-chlorophenyl)-6-methyl-1,4-dihydropyrimidine-5-carboxamide] | 9.68 | >30 | <1 |  | 7.69 | IC50 (recombinant mouse GALK1; [5]): 9.68 µM |
| COc1ccc(C(=O)O)cc1NC(=O)C1=C(C)NC(Nc2nc3ccc(F)cc3o2)=NC1c1ccccc1Cl (centres unmarked) [Compound 27, 3-(4-(2-chlorophenyl)-2-((6-fluorobenzo[d]oxazol-2-yl)amino)-6-methyl-1,4-dihydropyrimidine-5-carboxamido)-4-methoxybenzoic acid] | 12.2 |  |  |  | 2.17 | Metab. Stabil. (m) ([1]; microsomal half-life): >30 m; Sol. [2]: 53.3 µg/mL |
| CC1=C(C(=O)Nc2ccc(Cl)cn2)C(c2ccccc2Cl)N=C(Nc2nc3ccccc3o2)N1 (centres unmarked) [Compound 153, 2-(benzo[d]oxazol-2-ylamino)-4-(2-chlorophenyl)-N-(5-chloropyridin-2-yl)-6-methyl-1,4-dihydropyrimidine-5-carboxamide] |  | 30.79 | <1 |  | 4.85 | mGALK (μM) (recombinant mouse GALK1; [11]): in- active |
| CC1=C(C(=O)Nc2ccc(CO)cn2)C(c2ccccc2Cl)N=C(Nc2nc3ccc(F)cc3o2)N1 (centres unmarked) [Compound 42, 4-(2-chlorophenyl)-2-((6-fluorobenzo[d]oxazol-2-yl)amino)-N-(5-(hydroxymethyl)pyridin-2-yl)-6-methyl-1,4-dihydropyrimidine-5-carboxamide] | 19.3 |  |  |  | 12.2 | Metab. Stabil. (m) ([1]; microsomal half-life): >30 m; Sol. [2]: <1 µg/mL |
| O=C1NCCC2=C1C(c1ccccc1Cl)N=C(Nc1nc3ccccc3o1)N2 (centres unmarked) [Compound 245, 2-(benzo[d]oxazol-2-ylamino)-4-(2-chlorophenyl)-4,6,7,8-tetrahydropyrido[4,3-d]pyrimidin-5(1H)-one] |  |  | <1 |  |  | IC50 (recombinant mouse GALK1; [8]): 21.7 µM; IC50 (recombinant human GALK1; [12]): 17.2 µM; Metab. Stabil. (m) [1, 9]: 27.12 m |
| CNCCNC(=O)C1=C(C)NC(Nc2nc3ccc(F)cc3o2)=NC1c1ccccc1Cl (centres unmarked) [Compound 33, 4-(2-chlorophenyl)-2-((6-fluorobenzo[d]oxazol-2-yl)amino)-6-methyl-N-(2-(methylamino)ethyl)-1,4-dihydropyrimidine-5-carboxamido] | 6.11 |  |  |  | 15.3 | Metab. Stabil. (m) ([1]; microsomal half-life): >30 m; Sol. [2]: >67 µg/mL |
| COC(=O)Cc1nnc(NC(=O)C2=C(C)NC(Nc3nc4ccccc4o3)=NC2c2ccccc2Cl)s1 (centres unmarked) [Compound 174, methyl 2-(5-(2-(benzo[d]oxazol-2-ylamino)-4-(2-chlorophenyl)-6-methyl-1,4-dihydropyrimidine-5-carboxamido)-1,3,4-thiadiazol-2-yl)acetate] |  | 8.0854 | <1 | 6.11 | 6.11 |  |
